Patent publication US20250281649A1, “PROBE DIRECTED TO ENZYME ALDH1A3 AND USE THEREOF IN THE DIAGNOSIS OF GLIOBLASTOMA” (Universita' Degli Studi Del Piemonte Orientale "A. Avogadro", priority 2021, published 2025)

Columns and labels:
ALDH1A1 = biological target: T1, ALDH1A1 (Homo sapiens, UniProt P00352); test: KD evaluation by probe fluorescence (Tecan SPARK); type: binding; conditions: probe fixed at 10 μM, isoenzyme 100 μM to 1 μM
T1 construct: His-tag; made in house; host or cells: bacterial cells
T1 sequence (P00352 1-501): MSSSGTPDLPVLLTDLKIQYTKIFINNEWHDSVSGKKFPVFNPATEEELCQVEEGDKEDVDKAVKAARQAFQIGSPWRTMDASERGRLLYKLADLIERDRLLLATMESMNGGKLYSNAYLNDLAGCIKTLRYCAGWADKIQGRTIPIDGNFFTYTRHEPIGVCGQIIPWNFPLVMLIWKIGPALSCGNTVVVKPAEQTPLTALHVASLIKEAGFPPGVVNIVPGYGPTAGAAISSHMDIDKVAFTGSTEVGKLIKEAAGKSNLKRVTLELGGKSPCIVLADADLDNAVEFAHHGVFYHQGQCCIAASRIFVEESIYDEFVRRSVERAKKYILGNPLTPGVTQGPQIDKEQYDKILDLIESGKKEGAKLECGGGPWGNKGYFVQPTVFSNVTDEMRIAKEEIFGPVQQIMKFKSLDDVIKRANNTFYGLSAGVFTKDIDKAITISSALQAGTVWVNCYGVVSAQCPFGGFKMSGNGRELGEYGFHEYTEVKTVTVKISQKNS
Method: (§1) A common protocol to express and purify all three members of the ALDHIA subfamily has been optimized. Briefly, induced cells, collected by centrifugation, were re-suspended in an appropriate volume of lysis buffer (50 mM Na2HPO4, 300 mM NaCl, 1 mM β-mercaptoethanol, 20 mM imidazole, pH 7.5) added of benzonase nuclease (250 U/μL) and Protease inhibitor cocktail from SIGMA. After ultracentrifugation, the clarified sample was purified by a His-tag affinity chromatography followed by size-exclusion chromatography, using an AKTA FPLC system, at 4° C. To evaluate the purity and homogeneity of the protein, after each purification step, eluted d fractions were analyzed by SDS-PAGE and the protein quantification was always determined by Bradford protein assay.
(§2) KD evaluation: on a Tecan—SPARK, probe 14 and 13 were tested at a fixed concentration of 10 μM. All the isoenzymes were tested in wide range of concentrations (from 100 μM to 1 μM). The analysis was settled with a BW of 20, monitoring the Em wavelength in range comprised between 520 and 535 nm for probe 14 and 520 and 580 nm for probe 13. The Ex was fixed at 420 nm for probe 14 and 440 nm for probe 13. The test was performed in quadruplicate with all the three isoenzymes. The recipe of the buffer reaction was the same as described before.

ALDH1A2 = biological target: T2, ALDH1A2 (Homo sapiens, UniProt O94788); test: KD evaluation by probe fluorescence (Tecan SPARK); type: binding; conditions: probe fixed at 10 μM, isoenzyme 100 μM to 1 μM
T2 construct: His-tag; made in house; host or cells: bacterial cells
T2 sequence (O94788 1-518): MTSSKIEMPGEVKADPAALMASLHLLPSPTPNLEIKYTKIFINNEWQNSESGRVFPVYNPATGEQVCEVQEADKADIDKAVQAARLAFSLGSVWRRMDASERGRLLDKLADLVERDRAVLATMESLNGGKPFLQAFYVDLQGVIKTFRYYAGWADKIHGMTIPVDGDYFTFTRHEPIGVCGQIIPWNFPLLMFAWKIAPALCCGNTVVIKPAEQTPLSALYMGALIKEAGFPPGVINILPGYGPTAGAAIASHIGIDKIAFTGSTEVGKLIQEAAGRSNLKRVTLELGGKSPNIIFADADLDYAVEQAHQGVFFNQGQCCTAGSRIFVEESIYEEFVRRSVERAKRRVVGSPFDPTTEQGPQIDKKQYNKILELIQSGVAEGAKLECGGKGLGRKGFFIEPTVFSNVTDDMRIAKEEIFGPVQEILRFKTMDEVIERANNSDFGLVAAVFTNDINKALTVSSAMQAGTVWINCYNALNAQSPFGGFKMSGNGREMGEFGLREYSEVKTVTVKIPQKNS
Method: as §1, §2

ALDH1A3 [1] = biological target: T3, ALDH1A3 (Homo sapiens, UniProt P47895); test: KD evaluation by probe fluorescence (Tecan SPARK); type: binding; conditions: ALDH1A3; probe fixed at 10 μM, isoenzyme 100 μM to 1 μM; read-out: KD
T3 construct: His-tag; made in house; host or cells: bacterial cells
T3 sequence (P47895 1-512): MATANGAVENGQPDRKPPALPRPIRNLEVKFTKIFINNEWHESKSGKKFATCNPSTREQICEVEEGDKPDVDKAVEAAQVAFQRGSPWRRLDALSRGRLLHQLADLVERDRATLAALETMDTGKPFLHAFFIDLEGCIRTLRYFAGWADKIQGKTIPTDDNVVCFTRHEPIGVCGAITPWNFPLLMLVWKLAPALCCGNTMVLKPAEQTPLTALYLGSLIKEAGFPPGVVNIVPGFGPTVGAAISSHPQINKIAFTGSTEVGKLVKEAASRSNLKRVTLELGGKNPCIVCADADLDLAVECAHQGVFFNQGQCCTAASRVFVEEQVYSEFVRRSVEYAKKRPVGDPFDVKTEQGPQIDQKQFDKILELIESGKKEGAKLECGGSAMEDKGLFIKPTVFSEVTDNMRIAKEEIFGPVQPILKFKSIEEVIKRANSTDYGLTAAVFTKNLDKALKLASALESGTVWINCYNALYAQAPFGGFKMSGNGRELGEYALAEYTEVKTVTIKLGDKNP
Method: as §1, §2

ALDH1A3 [2] = biological target: T3, ALDH1A3; test: Ki evaluation, competitive inhibition vs acetaldehyde, NADH formation; type: biochemical; conditions: competitive vs acetaldehyde 1-20 mM
Method: as §1
Ki evaluation: on a Tecan—SUNRISE, probe 13 was tested as a possible competitive inhibitor, at a variable concentration (200, 100, 50, 10, 1 and 0 μM). In the same plate, different the acetaldehyde was tested at concentrations (1, 2.5, 5, 10, 15 and 20 mM) to describe the competitive mechanism. The recipe of the buffer reaction was the same as described before. The analysis was conducted measuring the NADH formation, that has a specific absorbance wavelength (340 nm). The test was performed in triplicate only with the ALDH1A3.

CCOC(=O)Cn1cc(COc2ccc(/C=C/C(O)=C/C(=O)/C=C/c3ccc(O)c(OC)c3)cc2OC)nn1 [Compound 14]
Kd (ALDH1A1): 42.4 µM
Kd (ALDH1A2): 125 µM
Kd (ALDH1A3 [1]): 84.3 µM

COc1cc(/C=C/C(=O)/C=C(O)/C=C/c2ccc(OCc3cn(CCOc4ccc(C=O)cc4)nn3)c(OC)c2)ccc1O [Compound 13]
Ki (ALDH1A3 [2]): 900 nM
Kd (ALDH1A1): 31.1 µM
Kd (ALDH1A2): 36.9 µM
Kd (ALDH1A3 [1]): 38.2 µM
